{
  "source": "patent US20160287497A1",
  "about": "“USE AS A DEODORANT AGENT OF A SALIFIED SALICYLIC ACID DERIVATIVE, ALONE OR IN A MIXTURE” (L'OREAL, priority 2013, published 2016)",
  "key": {"[1]": {"experiment": "Anti-odor effect: ex-vivo olfactory evaluation test on incubated sweat", "method": "The deodorant activity was evaluated in the ex-vivo olfactory evaluation test, on incubated sweat.\nEach compound under evaluation was introduced at a rate of 0.3 mg into 1 mL of sweat. The compounds under evaluation were weighed in 25 or 30 mL pill bottles and 1 mL from a pool of fresh sweat was then added. The pill bottles were hermetically sealed and placed in an incubator at 35° C. for 24 hours. After being removed from the incubator, the pill bottles were opened and allowed to cool to ambient temperature.\nA panel of sixteen people performed an olfactory analysis of each pill bottle. The efficacy of each compound evaluated was determined in comparison to a negative control (incubated sweat alone)."}, "Corynebacterium xerosis": {"system": "Corynebacterium xerosis", "experiment": "Effect on Corynebacterium xerosis: growth inhibition in microplate, MIC", "format": "cell-based", "method": "• Test principle: contacting of decreasing concentrations of compounds under evaluation with an identical inoculum of microorganisms in a culture medium suitable for the growth of C. xerosis.\nThe dilutions of the compounds under evaluation are performed in agar at 1:1000, making it possible, for dispersible compounds under evaluation, to do away with the use of a solvent which could introduce bias in the evaluation of the compounds. The concentration range chosen was: 1%, 0.3%, 0.03% and 0.003%. Each concentration was tested in triplicate.\nTo ensure that the potential inhibitory activity was not associated with a pH effect, the pH of the culture medium was verified at the end of incubation.\nThe compound mixtures M0 and M2 were evaluated based on this protocol, along with n-octanoyl-5-salicylic acid (comparison)."}},
  "data": [
    {"smiles": "CCCCCCCC(=O)c1ccc(O)c(C(=O)O)c1", "note": "[N-octanoyl-5-salicylic acid, n-octanoyl-5-salicylic acid]", "values": [
      {"measurement": "% Variation incubated sweat intensity", "setting": "[1]; 0.3 mg in 1 mL of sweat, 35° C. for 24 hours, panel of sixteen people, vs incubated sweat alone", "result": "−57", "unit": "%"},
      {"measurement": "unpleasant odor of incubated sweat (result in words)", "setting": "[1]; same protocol as Table 2", "result": "reduce the unpleasant odor of incubated sweat"},
      {"measurement": "MIC C. xerosis", "setting": "Corynebacterium xerosis; incubation 24 to 48 hours, Optical Density 620 nm vs growth control, range tested 1%, 0.3%, 0.03%, 0.003%, triplicate", "result": "<0.003", "unit": "%"},
      {"measurement": "growth of C. xerosis (result in words)", "setting": "Corynebacterium xerosis; same protocol as Table 1", "result": "inhibit the growth of C. xerosis"}
    ]}
  ]
}
